From patent US11667602B2, “Compounds and their use” (AstraZeneca AB, priority 2020, dated 2023)
Where two headings read alike, the source gives them in different places.

Biological target: T1, human RXFP1 (Homo sapiens, UniProt Q9HBX9)
T1 sequence (Q9HBX9 1-757): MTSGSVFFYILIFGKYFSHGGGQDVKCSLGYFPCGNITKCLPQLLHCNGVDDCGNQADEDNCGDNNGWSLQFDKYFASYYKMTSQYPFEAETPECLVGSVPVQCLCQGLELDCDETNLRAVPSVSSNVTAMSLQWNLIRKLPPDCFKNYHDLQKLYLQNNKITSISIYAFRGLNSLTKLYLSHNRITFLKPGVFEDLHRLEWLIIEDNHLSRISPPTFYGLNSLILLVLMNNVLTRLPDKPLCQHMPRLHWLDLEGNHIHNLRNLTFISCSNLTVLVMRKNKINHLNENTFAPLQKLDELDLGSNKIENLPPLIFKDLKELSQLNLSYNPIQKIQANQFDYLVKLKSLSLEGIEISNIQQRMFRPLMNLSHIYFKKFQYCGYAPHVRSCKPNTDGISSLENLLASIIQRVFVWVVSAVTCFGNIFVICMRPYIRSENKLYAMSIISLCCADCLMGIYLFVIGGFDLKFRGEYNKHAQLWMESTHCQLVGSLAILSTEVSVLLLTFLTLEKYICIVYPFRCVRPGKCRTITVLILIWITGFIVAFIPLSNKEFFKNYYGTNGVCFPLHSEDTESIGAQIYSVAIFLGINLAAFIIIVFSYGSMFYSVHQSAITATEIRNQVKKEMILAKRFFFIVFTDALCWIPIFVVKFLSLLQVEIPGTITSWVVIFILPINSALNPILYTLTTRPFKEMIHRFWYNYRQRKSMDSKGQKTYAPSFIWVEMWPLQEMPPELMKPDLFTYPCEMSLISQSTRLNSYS
Assay: RXFP1 Hu cAMP (Test A)
Type: cell-based
Design: expressed in transfected cells; host or cells: Jump-In T-REx CHO-K1 cells (ThermoFisher), induced with 10 ng/ml doxycycline for 24 h
Procedure, shortened: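 CHO-K1 (Jump-In T-REx), RXFP1 induced w/ 10 ng/ml doxycycline 24 h, cryopreserved. 0.5 mM IBMX final. cAMP by HTRF, 2 h RT, std curve.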

[1] = RXFP1 Hu cAMP, read-out: Test A EC50

Compound	Test A Sinf (RXFP1 Hu cAMP)	EC50 [1]	EC50 (Test A EC50, RXFP1 Hu cAMP)
COc1cc(F)c(-c2ccnc(C(=O)O)c2)cc1C(=O)N[C@H]1[C@@H](C(=O)Nc2cccc(S(=O)(=O)C(F)(F)F)c2)[C@@H]2C=C[C@H]1C2 (racemic) [Example 272, rac-4-(2-Fluoro-4-methoxy-5-(((1R,2R,3S,4S)-3-((3-((trifluoromethyl)sulfonyl)phenyl)carbamoyl)bicyclo[2.2.1]hept-5-en-2-yl)carbamoyl)phenyl)picolinic acid]	107%	4.9 µM	
CCC(CC)NC(=O)c1ccc(C)cc1NC(=O)c1cc(O[C@H]2CC[C@@](C)(C(=O)O)CC2)c(C#N)cc1OC [Example 168]	121%	> 2.2 µM	
COc1cc(F)c(-c2cnc(C(=O)O)cn2)cc1C(=O)N[C@H]1[C@@H](C(=O)Nc2cccc(S(=O)(=O)C(F)(F)F)c2)[C@@H]2C=C[C@H]1C2 (racemic) [Example 276]	95%	3.3 µM	
COc1cc(F)c(OC2CCC(C(=O)O)CC2)cc1C(=O)N[C@H]1[C@@H](C(=O)Nc2cccc(S(=O)(=O)C(F)(F)F)c2)[C@@H]2C=C[C@H]1C2 (mixture of isomers) [Example 457]	56%		
COc1cc(F)c(O[C@H]2CC[C@@](C)(C(=O)O)CC2)cc1C(=O)NC1C(OC)CCC1C(=O)Nc1cccc(S(=O)(=O)C(F)(F)F)c1 (single isomer, unassigned) [Example 526, (1R,4s)-4-(2-Fluoro-4-methoxy-5-(((1S*,2S*,5S*)-2-methoxy-5-((3-((trifluoromethyl)sulfonyl)phenyl)carbamoyl)cyclopentyl)carbamoyl)phenoxy)-1-methylcyclohexane-1-carboxylic acid]		> 40 µM	
(1R,4s)-4-(2-Fluoro-5-(((3S*,4R*)-4-((4-fluoro-3-(pentafluoro-λ6-sulfaneyl)phenyl)carbamoyl)tetrahydrofuran-3-yl)carbamoyl)-4-methoxyphenoxy)-1-methylcyclohexane-1-carboxylic acid [Example 565]	113%		
COc1cc(C(F)(F)F)c(O[C@H]2CC[C@@](C)(C(=O)O)CC2)cc1C(=O)N[C@@H]1[C@H]2CC[C@H](C2)[C@@H]1C(=O)NCC1(C)CCC1 [Example 372]	96%		0.021 µM
(1R,4s)-4-(2-Fluoro-5-(((1S*,2S*,5S*)-2-hydroxy-5-((3-((trifluoromethyl)sulfonyl)phenyl)carbamoyl)cyclopentyl)carbamoyl)-4-methoxyphenoxy)-1-methylcyclohexane-1-carboxylic acid [Example 529]	96%		
COc1cc(F)c(O[C@H]2CC[C@@](C)(C(=O)O)CC2)cc1C(=O)N[C@@H]1[C@@H](O)[C@@H](O)C[C@@H]1C(=O)Nc1cccc(S(=O)(=O)C(F)(F)F)c1 (racemic) [Example 394, (1R,4s)-4-(5-(((1SR,2RS,3SR,5SR)-2,3-Dihydroxy-5-((3-((trifluoromethyl)sulfonyl)phenyl)carbamoyl)cyclopentyl)carbamoyl)-2-fluoro-4-methoxyphenoxy)-1-methylcyclohexane-1-carboxylic acid]		> 40 µM	
COc1cc(F)c(O[C@H]2CC[C@@](CO)(C(=O)O)CC2)cc1C(=O)NC1COCC1C(=O)NCC1(C)CCC1 (single isomer, unassigned) [Example 580, (1R,4s)-4-(2-Fluoro-4-methoxy-5-(((3S*,4R*)-4-(((1-methylcyclobutyl)methyl)carbamoyl)tetrahydrofuran-3-yl)carbamoyl)phenoxy)-1-(hydroxymethyl)cyclohexane-1-carboxylic acid]		> 40 µM	

The remaining compounds from weak to strong by EC50 [1], led by results:

Test A Sinf (RXFP1 Hu cAMP)	EC50 [1]	Compound	EC50 (Test A EC50, RXFP1 Hu cAMP)
125%	0.98 µM	COc1cc(C#N)c(O[C@H]2CC[C@@](C)(C(=O)O)CC2)cc1C(=O)Nc1cc(C)ccc1C(=O)NCC1(F)CCC1 [Example 172]	
106%	0.86 µM	CCCNC(=O)[C@H]1[C@@H]2CC[C@@H](C2)[C@H]1NC(=O)c1cc(O[C@H]2CC[C@@](C)(C(=O)O)CC2)c(C#N)cc1OC [Example 116, (1S,4s)-4-(2-Cyano-4-methoxy-5-(((1S,2R,3S,4R)-3-(propylcarbamoyl)bicyclo[2.2.1]heptan-2-yl)carbamoyl)phenoxy)-1-methylcyclohexane-1-carboxylic acid]	
118%	0.65 µM	COc1cc(F)c(OC2CC(CC(=O)O)C2)cc1C(=O)NC1C2CCC(C2)C1C(=O)Nc1cccc(S(=O)(=O)C(F)(F)F)c1 [Example 474, 2-((1R,3r)-3-(2-Fluoro-4-methoxy-5-(((1R,2R,3S,4S)-3-((3-((trifluoromethyl)sulfonyl)phenyl)carbamoyl)bicyclo[2.2.1]heptan-2-yl)carbamoyl)phenoxy)cyclobutyl)acetic acid]	
96%	0.53 µM	COCC1(CNC(=O)[C@H]2[C@@H]3CC[C@@H](C3)[C@H]2NC(=O)c2cc(O[C@H]3CC[C@@](C)(C(=O)O)CC3)c(F)cc2OC)CCC1 [Example 594]	
100%	0.5 µM	COc1cc(F)c(-c2ccc([C@@H](C(=O)O)N(C)C)cc2)cc1C(=O)N[C@@H]1[C@H]2CC[C@H](C2)[C@@H]1C(=O)Nc1cccc(S(=O)(=O)C(F)(F)F)c1 (racemic) [Example 295]	
90%	0.42 µM	COc1cc(F)c(O[C@H]2CC[C@@](C)(C(=O)O)CC2)cc1C(=O)N[C@@H]1[C@H]2CC[C@H](C2)[C@@H]1C(=O)N[C@H]1CCN(S(=O)(=O)C(F)(F)F)C1 [Example 606]	
108%	0.4 µM	COc1cc(F)c(O[C@H]2CC[C@@](C)(C(=O)O)CC2)cc1C(=O)N[C@@H]1[C@H]2CC[C@H](C2)[C@@H]1C(=O)NCC1(F)CCC1 [Example 609]	
106%	0.4 µM	COc1cc(F)c(O[C@H]2CC[C@@](C)(C(=O)O)CC2)cc1C(=O)N[C@@H]1[C@H]2CC[C@H](C2)[C@@H]1C(=O)N[C@H](C)C(F)(F)F [Example 597]	
90%	0.26 µM	COc1cc(F)c(O[C@H]2CC[C@@](C)(C(=O)O)CC2)cc1C(=O)N[C@H]1[C@@H](C(=O)NCC2(C)CCC2)[C@H]2CC[C@@H]1O2 (racemic) [Example 331, (1R,4s)-4-(2-Fluoro-4-methoxy-5-(((1SR,2SR,3RS,4RS)-3-(((1-methylcyclobutyl)methyl)carbamoyl)-7-oxabicyclo[2.2.1]heptan-2-yl)carbamoyl)phenoxy)-1-methylcyclohexane-1-carboxylic acid]	
104%	0.14 µM	COc1cc(F)c(O[C@H]2CC[C@@](C)(C(=O)O)CC2)cc1C(=O)N[C@@H]1[C@H]2CC[C@H](C2)[C@@H]1C(=O)NC12CC(C1)C2 [Example 600]	
95%	0.084 µM	COc1cc(C#N)c(O[C@H]2CC[C@@](C)(C(=O)O)CC2)cc1C(=O)N[C@@H]1[C@H]2CC[C@H](C2)[C@@H]1C(=O)N[C@@H](C)c1ccccc1 (racemic) [Example 140]	
109%	0.076 µM	COc1cc(F)c(O[C@H]2CC[C@@](C)(C(=O)O)CC2)cc1C(=O)N[C@@H]1[C@H]2CC[C@H](C2)[C@@H]1C(=O)NCC1(C(F)(F)F)CCC1 [Example 613]	
114%	0.07 µM	CC[C@]1(C(=O)O)CC[C@@H](Oc2cc(C(=O)N[C@@H]3[C@H]4CC[C@H](C4)[C@@H]3C(=O)NCC(C)(C)C)c(OC)cc2F)CC1 [Example 386]	
99%	0.043 µM	COc1cc(C#N)c(O[C@H]2CC[C@@](C)(C(=O)O)CC2)cc1C(=O)N[C@@H]1[C@H]2CC[C@H](C2)[C@@H]1C(=O)NC[C@H](C)c1ccccc1 [Example 118]	
